{"source": "patent US20220408724A1", "about": "“METHOD FOR CONTROLLING METABOLISM OF BRANCHED FATTY ACID” (KAO CORPORATION, priority 2019, published 2022)", "type_in_all_cases": "cell-based", "key": {"Staphylococcus aureus": {"system": "Staphylococcus aureus", "assay": "Suppression of metabolism of 14-methylhexadecanoic acid on cotton fabric", "settings": "agent 250 μg/fabric g", "description": "(§1) A methanol solution in which 14-methylhexadecanoic acid (SIGMA-ALDRICH) was dissolved was added dropwise to 3 cm×3 cm pieces of sterilized plain-weave cotton fabric to make it adhered to the fabric. The adhesion amount of 14-methylhexadecanoic acid was set to 10 μg per piece of the plain-weave cotton fabric (100 μg/fabric g).\n(§2) Further, a methanol solution in which each metabolism controlling agent was dissolved was prepared and added dropwise to the fabric to which 14-methylhexadecanoic acid adhered, and it was thereafter dried for an hour. This fabric was placed in a sterilized screw tube bottle No. 3 (Maruemu Corporation) and 100 μl of the bacterial suspension was inoculated thereto, and culture was carried out under 37° C.; conditions for 21 hours.\n(§3) 3 ml of methanol was added to the screw tube bottle after culture, and extraction was carried out under ultrasonic irradiation for 30 minutes (20° C.). The extraction liquid was mixed with a (trimethylsilyl)diazomethane hexane solution (FUJIFILM Wako Pure Chemical Corporation) at 9:1 (volume ratio) and left overnight under room temperature and dark place conditions. After that, 14-methylhexadecanoic acid remaining on the fabric was quantified by GC. The quantification conditions for GC are as follows. • GC: Agilent 7890A • GC column: Agilent DB-1 30 m×250 μm×0.25 μm • Temperature rise condition: 50° C. (held for 3 minutes)-(10° C./min)-300° C. (held for 5 minutes) • Sample injection volume: 1 μl • Split ratio: 1:12 • Detector: FID\n(§4) The residual amount of 14-methylhexadecanoic acid after culture on the fabric to which the metabolism controlling agent was added was quantified, and the ratio of the residual amount to that of 14-methylhexadecanoic acid in the case of adding no metabolism controlling agent (control) was calculated as a metabolism suppression rate (%). The higher a numerical value thereof is, the more the metabolism is suppressed. Note that the metabolism suppression rate was determined by the following formula:\n(§5) Metabolism suppression rate(%)=[1−(100−A)/(100−B)]×100 • A: residual amount of 14-methylhexadecanoic acid of example or comparative example (μg/fabric g) • B: residual amount of 14-methylhexadecanoic acid of control (μg/fabric g)\nThe metabolism of 14-methylhexadecanoic acid by bacteria of the genus Staphylococcus (Staphylococcus aureus) was tested in the same manner as in example 1.\nIn this example, Staphylococcus aureus (strain isolated from clothing) was used as a microorganism.\nFurther, in this example, a bacterial suspension of 10^7 (CFU/ml) prepared by using an NB liquid medium diluted to 1/10 with ion exchange water was used as a bacterial suspension."}, "Micrococcus aloeverae [1]": {"system": "Micrococcus aloeverae", "assay": "Suppression of metabolism of 14-methylhexadecanoic acid on cotton fabric", "description": "as §1, §2, §3, §4, §5\n(§6) The metabolism of 14-methylhexadecanoic acid by bacteria of the genus Micrococcus was tested in the same manner as in example 1.\n(§7) In this example, Micrococcus aloeverae (strain isolated from clothing) was used as a microorganism.\n(§8) Further, in this example, a bacterial suspension of 10^7 (CFU/ml) prepared by using an SCD liquid medium (NIHON PHARMACEUTICAL CO., LTD.) diluted to 1/10 with ion exchange water was used as a bacterial suspension.\n(§9) Note that, in this example, C12OH (1-dodecanol) was used as the metabolism controlling agent."}, "Micrococcus aloeverae [2]": {"system": "Micrococcus aloeverae", "assay": "Suppression of metabolite 2-methylbutanoic acid from 14-methylhexadecanoic acid", "description": "After culture on fabric prepared in the same manner as in the above (1), 3 ml of methanol was added, and extraction was carried out under ultrasonic irradiation for 30 minutes (20° C.). The extraction liquid was mixed with (a 1000 ppm methanol solution of) an ADAM reagent of Funakoshi Co., Ltd. at 1:1 (volume ratio) and left overnight under room temperature and dark place conditions. After that, 4-methyl-3-hexenoic acid as a metabolite from 14-methylhexadecanoic acid was quantified by HPLC. The quantification conditions are as follows.\nThe production amount of 4-methyl-3-hexenoic acid after culture on the fabric to which each metabolism controlling agent was added was quantified, and the ratio of the production amount to that of 4-methyl-3-hexenoic acid in the case of adding no metabolism controlling agent (control) was calculated as a metabolite suppression rate (%). The higher a numerical value thereof is, the more the metabolism is suppressed. Note that the metabolite suppression rate was determined by the following formula:\nMetabolite suppression rate(%)=100×[(D−C)/D] • C: production amount of metabolite of example or comparative example (μg/fabric g) • D: production amount of metabolite of control (μg/fabric g)\nas §6, §7, §8\nFurther, in this example, 2-methylbutanoic acid was quantified as a metabolite from 14-methylhexadecanoic acid, and the metabolite suppression rate was determined in the same manner as in example 1.\nas §9"}, "Moraxella osloensis": {"system": "Moraxella osloensis", "assay": "Examination example: measurement of viable bacterial count", "settings": "single agent 100 μg/fabric g", "description": "After culture on fabric prepared in the same manner as in the above (1), 9 mL of an LP diluent (manufactured by NIHON PHARMACEUTICAL CO., LTD.) was added, and the extraction of the bacteria was carried out under ultrasound for 10 minutes. The extraction liquid was poured and mixed to an SCD-LP agar medium (NIHON PHARMACEUTICAL CO., LTD.), and culture was thereafter carried out at 37° C.; for a day. The number of colonies obtained on each piece of the fabric was counted, and a common logarithm value thereof was measured as the viable bacterial count. […] In addition, the […], the more the viable bacterial count of the microorganism is maintained."}, "[3]": {"system": "Escherichia coli (NBRC3972)", "assay": "Suppression of metabolism of 14-methylhexadecanoic acid on cotton fabric", "description": "as §1, §2, §3, §4, §5\nThe metabolism of 14-methylhexadecanoic acid by bacteria of the genus Escherichia (Escherichia coli) was tested in the same manner as in example 1.\nIn this example, Escherichia coli (NBRC3972) was used as a microorganism.\nFurther, in this example, a bacterial suspension of 10^6 (CFU/ml) prepared by using an NB liquid medium diluted to 1/10 with ion exchange water was used as a bacterial suspension.\nas §9"}, "Rhodotorula mucilaginosa": {"system": "Rhodotorula mucilaginosa", "assay": "Suppression of metabolism of 14-methylhexadecanoic acid on cotton fabric", "settings": "agent 250 μg/fabric g", "description": "as §1, §2, §3, §4, §5\nThe metabolism of 14-methylhexadecanoic acid by yeast of the genus Rhodotorula was tested in the same manner as in example 1.\nIn this example, Rhodotorula mucilaginosa (strain isolated from clothing) was used as a microorganism.\nFurther, in this example, the bacteria were precultured under conditions of a PDA agar medium (Difco), 30° C.; and 48 hours.\nFurther, in this example, a bacterial suspension of 10^7 (CFU/ml) prepared by using a PDB liquid medium (Difco) diluted to 1/10 with ion exchange water was used as a bacterial suspension."}}, "note": "Values joined by “and” are separate entries in the source; they are usually repeats but may differ in a detail not shown here. Identical values can stand only once.", "data": [{"smiles": "CCCCCCCCCCCCO", "note": "[Example C12OH, 1-dodecanol]", "values": [{"measurement": "Metabolism suppression rate (%)", "setting": "Staphylococcus aureus", "value": 75, "unit": "%"}, {"measurement": "Metabolism suppression rate (%)", "setting": "Micrococcus aloeverae [1]; agent 100 μg/fabric g", "value": 16.7, "unit": "%"}, {"measurement": "Metabolism suppression rate (%)", "setting": "Micrococcus aloeverae [1]; agent 250 μg/fabric g", "value": "73% and 55.0%"}, {"measurement": "Metabolism suppression rate (%)", "setting": "Micrococcus aloeverae [1]; agent 500 μg/fabric g", "value": 85.8, "unit": "%"}, {"measurement": "Metabolism suppression rate (%)", "setting": "Micrococcus aloeverae [1]; agent 1000 μg/fabric g", "value": 86.9, "unit": "%"}, {"measurement": "Metabolite suppression rate (%)", "setting": "Micrococcus aloeverae [2]; agent 100 μg/fabric g", "value": 21, "unit": "%"}, {"measurement": "Metabolite suppression rate (%)", "setting": "Micrococcus aloeverae [2]; agent 250 μg/fabric g", "value": "79% and 74%"}, {"measurement": "Metabolite suppression rate (%)", "setting": "Micrococcus aloeverae [2]; agent 500 μg/fabric g", "value": 75, "unit": "%"}, {"measurement": "Metabolite suppression rate (%)", "setting": "Micrococcus aloeverae [2]; agent 1000 μg/fabric g", "value": 75, "unit": "%"}, {"measurement": "Viable bacterial count (Log (cfu/fabric cm^2))", "setting": "Moraxella osloensis", "value": "6.2 Log (cfu/fabric cm^2)"}, {"measurement": "Metabolism suppression rate (%)", "setting": "[3]; agent 500 μg/fabric g", "value": "39% and 21%"}, {"measurement": "Metabolism suppression rate (%)", "setting": "[3]; agent 1000 μg/fabric g", "value": "90% and 61%"}, {"measurement": "Metabolism suppression rate (%)", "setting": "[3]; agent 2000 μg/fabric g", "value": 66, "unit": "%"}, {"measurement": "Metabolism suppression rate (%)", "setting": "[3]; agent 3000 μg/fabric g", "value": 73, "unit": "%"}, {"measurement": "Metabolism suppression rate (%)", "setting": "Rhodotorula mucilaginosa", "value": 68, "unit": "%"}]}]}
